In patent US11021515B2, “Therapeutically active compounds and their methods of use” (Agios Pharmaceuticals, Inc., priority 2013, dated 2021):

What was measured:
U87MG cells = assay: Cellular assay, inhibition of 2-HG production in U87MG cells; type: cell-based; details: Homo sapiens, U-87 MG, 48 h
Method: Cells (HT1080 or U87MG) are grown in T125 flasks in DMEM containing 10% FBS, 1× penicillin/streptomycin and 500 ug/mL G418 (present in U87MG cells only). They are harvested by trypsin and seeded into 96 well white bottom plates at a density of 5000 cell/well in 100 ul/well in DMEM with 10% FBS. […] Cells are incubated overnight at 37° C. in 5% CO2. The next day test compounds are made up at 2× the final concentration and 100 ul are added to each cell well. The final concentration of DMSO is 0.2% and the DMSO control wells are plated in row G. The plates are then placed in the incubator for 48 hours. […] The cell plate is placed back in the incubator for another 24 hours. At 72 hours post compound addition, 10 mL/plate of Promega Cell Titer Glo reagent is thawed and mixed. The cell plate is removed from the incubator and allowed to equilibrate to room temperature. Then 100 ul of Promega Cell Titer Glo reagent is added to each well of media. The cell plate is then placed on an orbital shaker for 10 minutes and then allowed to sit at room temperature for 20 minutes. The plate is then read for luminescence with an integration time of 500 ms.

IDH1 R132C = IDH1 R132C (Homo sapiens (Human), UniProt O75874, R132C); assay: In vitro NADPH depletion assay for IDH1m inhibitors (R132C); type: biochemical; details: IDH1 R132C enzyme, read-out: IDH R132C IC50
IDH1 R132C, sequence (O75874 whole entry R132C): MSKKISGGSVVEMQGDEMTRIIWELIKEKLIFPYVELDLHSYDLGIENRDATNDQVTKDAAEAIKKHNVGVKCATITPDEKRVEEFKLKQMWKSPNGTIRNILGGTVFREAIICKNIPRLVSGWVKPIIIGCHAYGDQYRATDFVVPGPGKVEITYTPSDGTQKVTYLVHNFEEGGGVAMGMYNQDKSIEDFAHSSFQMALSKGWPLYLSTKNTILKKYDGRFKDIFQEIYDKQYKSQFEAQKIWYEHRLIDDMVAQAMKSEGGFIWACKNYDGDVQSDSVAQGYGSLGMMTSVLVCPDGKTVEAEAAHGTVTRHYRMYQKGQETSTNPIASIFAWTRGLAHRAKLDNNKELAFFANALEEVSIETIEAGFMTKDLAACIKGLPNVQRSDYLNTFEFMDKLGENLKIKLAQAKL
Method: (§1) A test compound is prepared as 10 mM stock in DMSO and diluted to 50× final concentration in DMSO, for a 50 μl reaction mixture. IDH enzyme activity converting alpha-ketoglutarate to 2-hydroxyglutaric acid is measured using a NADPH depletion assay. In the assay the remaining cofactor is measured at the end of the reaction with the addition of a catalytic excess of diaphorase and resazurin, to generate a fluorescent signal in proportion to the amount of NADPH remaining. […] The reaction is started with the addition of […] Substrate Mix ([…] NADPH, 5 mM alpha-ketoglutarate, in Assay Buffer) and the mixture is incubated for 90 minutes at room temperature.
The concentration of NADPH and alpha-ketoglutarate in the Substrate Buffer is 20 μM and 1 mM, respectively.

IDH1 R132H = IDH1 R132H (Homo sapiens (Human), UniProt O75874, R132H); assay: In vitro NADPH depletion assay for IDH1m inhibitors (R132H); type: biochemical; details: IDH1 R132H enzyme, read-out: IDH R132H IC50
IDH1 R132H, sequence (O75874 whole entry R132H): as the sequence (O75874 whole entry R132C) above, with C132H counted along it
Method: as §1

Row | SMILES | IC50 (U87MG cells) [nM] | IC50 (IDH1 R132C) [nM] | IC50 (IDH1 R132H) [nM]
1 | CS(=O)(=O)c1cc(F)cc(N(C(=O)[C@@H]2CCC(=O)N2c2cc(C#N)ccn2)C(C(=O)NC2CCC(F)(F)CC2)c2ccccc2Cl)c1 (mixture of isomers) [Compound 105, (2S)—N-(1-(2-Chlorophenyl)-2-((4,4-difluorocyclohexyl)amino)-2-oxoethyl)-1-(4-cyanopyridin-2-yl)-N-(3-fluoro-5-(methylsulfonyl)phenyl)-5-oxopyrrolidine-2-carboxamide] | < 100 |  | 
2 | CS(=O)(=O)c1cc(F)cc(N(C(=O)[C@@H]2CCC(=O)N2c2cc(C#N)ccn2)C(C(=O)NC2CC(F)(F)C2)c2ccccc2Cl)c1 (mixture of isomers) [Compound 110, (2S)—N-(1-(2-Chlorophenyl)-2-((3,3-difluorocyclobutyl)amino)-2-oxoethyl)-1-(4-cyanopyridin-2-yl)-N-(3-fluoro-5-(methylsulfonyl)phenyl)-5-oxopyrrolidine-2-carboxamide] | < 100 | < 100 | < 100
3 | O=C(NC1CC(F)(F)C1)[C@H](c1ccccc1Cl)N(C(=O)[C@@H]1CCC(=O)N1c1ccccn1)c1cccc(F)c1 [Compound 5] | 100 to 500 |  | 
4 | O=C(NC1CC(F)(F)C1)[C@H](c1ccccc1Cl)N(C(=O)[C@@H]1CCC(=O)N1c1cccc(F)n1)c1cccc(F)c1 [Compound 11] |  | 100 to 500 | 
5 | O=C(NC1CC(F)(F)C1)[C@H](c1ccccc1Cl)N(C(=O)[C@@H]1CCC(=O)N1c1nccc2ccccc12)c1cccc(F)c1 [Compound 16] |  | 100 to 500 | 100 to 500
6 | O=C(NC1CC(F)(F)C1)[C@H](c1ccccc1Cl)N(C(=O)[C@@H]1CCC(=O)N1c1cnccn1)c1cccc(F)c1 [Compound 18] | < 100 |  | 
7 | O=C(NC1CC(F)(F)C1)[C@H](c1ccccc1Cl)N(C(=O)[C@@H]1CCC(=O)N1c1ccccc1)c1cccc(F)c1 [Compound 23] | 100 to 500 |  | 
8 | N#Cc1ccnc(N2C(=O)OC[C@H]2C(=O)N(c2cccc(F)c2)[C@H](C(=O)NC2CCC(F)(F)CC2)c2ccccc2Cl)c1 [Compound 78, (S)—N—((S)-1-(2-Chlorophenyl)-2-((4,4-difluorocyclohexyl)amino)-2-oxoethyl)-3-(4-cyano-pyridin-2-yl)-N-(3-fluorophenyl)-2-oxooxazolidine-4-carboxamide] | < 100 |  | 
9 | CCOC(=O)CN1C[C@@H](C(=O)N(c2cccc(F)c2)[C@H](C(=O)NC2CC(F)(F)C2)c2ccccc2Cl)N(c2cc(C#N)ccn2)C1=O [Compound 94, Ethyl 2-((4S)-4-((1-(2-chlorophenyl)-2-((3,3-difluorocyclobutyl)amino)-2-oxoethyl)(3-fluorophenyl)carbamoyl)-3-(4-cyanopyridin-2-yl)-2-oxoimidazolidin-1-yl)acetate] | < 100 |  | 
10 | CS(=O)(=O)c1cc(F)cc(N(C(=O)[C@@H]2CCC(=O)N2c2nccc(C#N)n2)[C@H](C(=O)NC2CC(F)(F)C2)c2ccccc2Cl)c1 [Compound 109, (S)—N—((S)-1-(2-Chlorophenyl)-2-((3,3-difluorocyclobutyl)amino)-2-oxoethyl)-1-(4-cyanopyrimidin-2-yl)-N-(3-fluoro-5-(methylsulfonyl)phenyl)-5-oxopyrrolidine-2-carboxamide] | 100 to 500 |  | 
11 | N#Cc1ccnc(N2C(=O)CC[C@H]2C(=O)N(c2cccc(C3(O)CC3)c2)[C@H](C(=O)NC2CC(F)(F)C2)c2ccccc2Cl)c1 [Compound 140, (S)—N—((S)-1-(2-Xhlorophenyl)-2-(3,3-difluorocyclobutylamino)-2-oxoethyl)-1-(4-cyanopyridin-2-yl)-N-(3-(1-hydroxycyclopropyl)phenyl)-5-oxopyrrolidine-2-carboxamide] | < 100 |  | 
